Data taken from US4691017A, “2-hydroxy-and 2-halo-ethylthiopyridine intermediates for preparing antiulcer compounds” (Richter Gedeon Vegyeszeti Gyar Rt., priority 1984, dated 1987).
Counter-ions that a name gives are not always drawn. Like-named read-outs stand apart in the source and are kept apart here.

Legend:
[1] = tested on: Gastric necrosis (gastric oedema and haemorrhagic injury); assay: Gastric necrosis induced by acidic ethanol (cytoprotective activity); assay type: in vivo, Female RG-Wistar rats; conditions: for ED50: Rattus norvegicus, po, 1 h, acidic ethanol, p.o.
Procedure: Water was given ad libitum. […] One hour later the animals were killed by overdosing with ether. Stomachs were removed and opened along the major curvature. After cleaning the wet weight of the stomachs was determined, and the difference between the wet weight obtained and the wet weight of the stomachs of untreated (control) animals was calculated, in order to determine the degree of gastric oedema. The stomachs were then dried and the gastic lesions were observed visually. Lengths of lesions were measured in millimeters. (Derelanko and Long, Proc. Soc. Exp. Biol. and Med. 166, 394 (1981)), and the length of the average lesions per stomach was given. Degree of cytoprotection was expressed in % related to the control. The statistical evaluation of the results was carried out by the Student test.

Gastric acid secretion = Gastric acid secretion inhibiting activity on Shay rats; assay type: in vivo, Female H-Wistar rats
Procedure: Gastric acid secretion inhibiting activity on Shay rats (Gastroenterology, 5, 43-46 (1945)
Female H-Wistar rats weighing 120-150 g each were fasted for 24 hours. Water was added ad libitum. The pylorus of the animals was ligated under light ether narcosis. The test drugs were administered during the operation, partially orally, partially intraperitoneally. 4 hours after treatment the animals were killed by an overdose of ether. The stomach was excised and cut along the large curvature. The volume and the pH of the contents were determined and in each case the HCl production was determined by titration.

Intestinal ulcer = assay: Indomethacin-induced intestinal ulceration (inflation technique); assay type: in vivo, Female RG-Wistar rats
Antral ulcer = assay: Indomethacin-induced antral ulceration; assay type: in vivo, Female RG-Wistar rats
Procedure: Indomethacin-induced antral and intestinal ulceration
Female RG-Wistar rats weighing 120 to 150 g. each were fasted for 24 hours. Water was added ad libitum. The animals were then given access to food for one hour, and 30 minutes after the administration of the test compounds a 15-mg./kg. oral dose of indomethacin was administered. 24 hours after indomethacin treatment the animals were killed by overdose of ether. Stomachs and the entire intestine were removed, the stomachs were opened along the main curvature, and the total ulcerated area (ulceration index, mm^2) was determined.

[2] = tested on: Aspirin-induced gastric ulceration; assay: Inhibition of aspirin-induced gastric ulceration; assay type: in vivo, Female H. Wistar rats
Procedure: Inhibition of aspirin-induced gastric ulceration
Female H. Wistar rats weighing 120 to 150 g each were fasted for 24 hours. Water was given ad libitum. The stomach ulcer was induced by oral administration of aspirin in a dose of 100 mg./kg. (in Tween 80 suspension). The test was given simultaneously with the administration of aspirin, orally. The animals were killed by overdose if ether, 4 hours after treatment. The stomach was excised and cut along the large curvature. The red-brownish erosions on the glandular surface were counted. When evaluating the test results, the number of ulcers per stomach and its proportion to the number of ulcers found in the stomachs of control animals (inhibition of ulceration) were determined.

[3] = read-out: Gastric oedema inhibition ED50
[4] = read-out: Haemorrhagic injury inhibition ED50
[5] = indomethacin 15 mg./kg. p.o. with 5 mg./kg. p.o. test compound
[6] = indomethacin 15 mg./kg. p.o. with 25 mg./kg. p.o. test compound
[7] = indomethacin 15 mg./kg. p.o. with 25 mg./kg. p.o. test compound, N 20
[8] = indomethacin 15 mg./kg. p.o. with 50 mg./kg. p.o. test compound

CC(=O)N(CCSc1ncccc1C(=O)c1ccccc1)C(C)=O [B, 3-benzoyl-2-{[2-(N,N-diacetylamino)-ethyl]-thio}-pyridine]
ED50 [1, 3]: 1 mg/kg | ED50 [1, 4]: 2 mg/kg

NCCSc1ncccc1C(=O)c1ccc(Cl)cc1 [C, 2-[(2-aminoethyl)-thio]-3-(p-chlorobenzoyl)-pyridine.HCl]
ED50 [1, 3]: 10 mg/kg | ED50 [1, 4]: 15 mg/kg

NCCSc1ncccc1C(=O)c1ccccc1 [Compound A, 2-[(2-aminoethyl)-thio]-3-benzoyl-pyridine.HCl]
Haemorrhagic injury ([1]; 0.05 mg./kg. p.o.): 48 ± 19 mm | Haemorrhagic injury inhibition ([1]; 0.05 mg./kg. p.o.): 45% | Oedema inhibition ([1]; 0.05 mg./kg. p.o.): 19% | Oedema ([1]; 0.05 mg./kg. p.o., N 8): 307 ± 42 mg | Haemorrhagic injury ([1]; 0.1 mg./kg. p.o.): 38 ± 18 mm | Oedema ([1]; 0.1 mg./kg. p.o., N 10): 209 ± 51 mg | Haemorrhagic injury inhibition ([1]; 0.1 mg./kg. p.o., p < 0.05): 56% | Oedema inhibition ([1]; 0.1 mg./kg. p.o., p < 0.05): 45% | Haemorrhagic injury ([1]; 1.0 mg./kg. p.o.): 5 ± 1.5 mm | Oedema ([1]; 1.0 mg./kg. p.o., N 12): 72 ± 28 mg | Haemorrhagic injury inhibition ([1]; 1.0 mg./kg. p.o., p < 0.01): 96% | Haemorrhagic injury ([1]; 10.0 mg./kg. p.o.): 6 ± 3 mm | Oedema ([1]; 10.0 mg./kg. p.o., N 12): 22 ± 12 mg | Haemorrhagic injury inhibition ([1]; 10.0 mg./kg. p.o., p < 0.01): 94% | Oedema inhibition ([1]; 10.0 mg./kg. p.o., p < 0.01): 95% | ED50 [1, 3]: 0.2 mg/kg | ED50 [1, 4]: 0.1 mg/kg | gastrocytoprotective activity after indomethacin pre-treatment ([1]; indomethacin pre-treatment): not eliminated by indomethacin pre-treatment | gastrocytoprotective activity, selectivity in words ([1]; versus gastric acid secretion inhibition): selective gastrocytoprotective activity | Secretion HCl inhibition (Gastric acid secretion; 5 mg./kg. p.o.): 37% | Secretion HCl/4 hours (Gastric acid secretion; 5 mg./kg. p.o., N 5): 357 ± 35 μmol/100 g body weight | Secretion HCl inhibition (Gastric acid secretion; 6 mg./kg. i.p.): 11% | Secretion HCl/4 hours (Gastric acid secretion; 6 mg./kg. i.p., N 5): 505 ± 29 μmol/100 g body weight | Secretion HCl inhibition (Gastric acid secretion; 10 mg./kg. p.o.): 38% | Secretion HCl/4 hours (Gastric acid secretion; 10 mg./kg. p.o., N 15): 350 ± 38 μmol/100 g body weight | Secretion HCl/4 hours (Gastric acid secretion; 12 mg./kg. i.p., N 10): 200 ± 30 μmol/100 g body weight | Secretion HCl inhibition (Gastric acid secretion; 12 mg./kg. i.p., p < 0.01): 65% | Secretion HCl inhibition (Gastric acid secretion; 20 mg./kg. p.o.): 34% | Secretion HCl/4 hours (Gastric acid secretion; 20 mg./kg. p.o., N 15): 372 ± 40 μmol/100 g body weight | Secretion HCl inhibition (Gastric acid secretion; 25 mg./kg. i.p.): 100% | Secretion HCl/4 hours (Gastric acid secretion; 25 mg./kg. i.p., N 5): 0 μmol/100 g body weight | Secretion HCl/4 hours (Gastric acid secretion; 40 mg./kg. p.o., N 5): 124 ± 27 μmol/100 g body weight | Secretion HCl inhibition (Gastric acid secretion; 40 mg./kg. p.o., p < 0.01): 70% | higher dose at which gastric acid secretion inhibiting activity was observed (relative to gastrocytoprotective dose) (Gastric acid secretion; selectivity of cytoprotection over acid secretion inhibition): about 500 times | Intestinal ulcer, tensile strength 24 hours after indomethacin treatment (Intestinal ulcer; [5]): 162 ± 14 mmHg | Intestinal ulcer, tensile strength 24 hours after indomethacin treatment (Intestinal ulcer; [6]): 198 ± 9 mmHg | Antral ulcer, ulceration index (Antral ulcer; [5]): 18.9 mm^2 /stomach | Antral ulcer, rats having no ulcer (Antral ulcer; indomethacin 15 mg./kg. p.o. with 5 mg./kg. p.o. test compound, N 15): 3 | Antral ulcer, ulceration index (Antral ulcer; [6]): 4.0 mm^2 /stomach | Antral ulcer, rats having no ulcer (Antral ulcer; [7]): 12 | Inhibition (of ulceration) ([2]; aspirin 100 + test compound 1 mg./kg.p.o.): 38% | Ulcer/Stomach ([2]; aspirin 100 + test compound 1 mg./kg.p.o., N 20): 9.4 + 4.1 | Inhibition (of ulceration) ([2]; aspirin 100 + test compound 2 mg./kg.p.o.): 47% | Ulcer/Stomach ([2]; aspirin 100 + test compound 2 mg./kg.p.o., N 10): 8.0 + 3.0 | Inhibition (of ulceration) ([2]; aspirin 100 + test compound 10 mg./kg.p.o.): 76% | Ulcer/Stomach ([2]; aspirin 100 + test compound 10 mg./kg.p.o., N 10): 3.7 + 4.5

CCCc1cc(C(=O)c2ccccc2)cc(SCCN)n1 [Compound E, 2-[(2-aminoethyl)-thio]-4-benzoyl-6-propylpyridine.2 HCl]
ED50 [1, 3]: 20 mg/kg | ED50 [1, 4]: 25 mg/kg

Cc1ccc(C)c(C(=O)c2cccnc2SCCN)c1 [D, 2-[(2-aminoethyl)-thio]-3-(2,5-dimethylbenzoyl)pyridine.HCl]
ED50 [1, 3]: 10 mg/kg | ED50 [1, 4]: 10 mg/kg

CN1CCN(CC(=O)N2c3ccccc3C(=O)Nc3cccnc32)CC1 [Pirenzepine, reference compound]
Intestinal ulcer, tensile strength 24 hours after indomethacin treatment (Intestinal ulcer; [6]): 152 ± 8 mmHg | Antral ulcer, ulceration index (Antral ulcer; [6]): 12.0 mm^2 /stomach | Antral ulcer, rats having no ulcer (Antral ulcer; [7]): 5

CN/C(=N/CCSCc1nc[nH]c1C)NC#N [cimetidine, reference compound]
Haemorrhagic injury ([1]; 25 mg./kg. p.o.): 82 ± 21 mm | Haemorrhagic injury inhibition ([1]; 25 mg./kg. p.o.): 2% | Oedema ([1]; 25 mg./kg. p.o., N 8): 441 ± 82 mg | Haemorrhagic injury ([1]; 100 mg./kg. p.o.): 42 ± 13 mm | Haemorrhagic injury inhibition ([1]; 100 mg./kg. p.o.): 46% | Oedema inhibition ([1]; 100 mg./kg. p.o.): 21% | Oedema ([1]; 100 mg./kg. p.o., N 8): 301 ± 42 mg | Intestinal ulcer, tensile strength 24 hours after indomethacin treatment (Intestinal ulcer; [8]): 161 ± 8 mmHg | Antral ulcer, ulceration index (Antral ulcer; [8]): 14.7 mm^2 /stomach | Antral ulcer, rats having no ulcer (Antral ulcer; indomethacin 15 mg./kg. p.o. with 50 mg./kg. p.o. test compound, N 10): 2
